Source: patent US12202840B2, “Compounds for the treatment or alleviation of disorders associated with Tau aggregates” (AC Immune SA, priority 2018, dated 2025)

Columns and labels:
Type in all cases: in vivo
rTg4510 mice [1] = experiment: Cortex size (cortical atrophy), study of Example 2; settings: once daily by gavage, 7 and 20 mg/kg, statistical significance at the higher dose, FIG. 6A
Protocol: (§1) Double transgenic rTg4510 mice are an aggressive Tauopathy model expressing the full-length human Tau carrying the P301L mutation (Tau4R0N-P301L) under the control of the tetracycline-inducible CaMKII promoter (Ramsden et al., 2005). Wild-type animals and single transgenic mice expressing only the tetracycline-controlled transactivator (tTA) were used as genotype controls. Mice were treated and tested. The study comprised 4 treatment groups (n=15 female mice/group) with the following group distribution (see Table 6). Compound of the invention or vehicle control were administered once daily by gavage for 12 weeks starting at the age of 5.5 weeks. The Morris Water Maze (MWM) behavioral test was performed after 12.5 weeks of treatment over 5 consecutive days. During MWM testing daily dosing was continued. Behavioral testing (MWM) and biochemical quantification of sarkosyl-insoluble Tau were performed on all mice (n=15 mice/group). Measurement of cortical atrophy and histology for Iba1 were performed on 10 mice/group.
After behavioral testing, mice were deeply anesthetized by standard injectable anesthesia and transcardially perfused with cold PBS. Brains were then removed and hemi-sagitally hemisected. […] A systematic random set of sections from seven sagittal levels per animal was used to quantify the cortex size.

rTg4510 mice [2] = experiment: Morris Water Maze behavioral test, study of Example 2; settings: once daily by gavage, 7 and 20 mg/kg, statistical significance at 20 mg/kg, FIG. 4
Protocol: as §1, with “Measurement of cortical atrophy and histology for Iba1 were performed on 10 mice/group.” left out
The MWM was performed in a circular tank, measuring 48″ in diameter. […] Trials were video recorded and analyzed by a computer program (WaterMaze; Actimetrics, Wilmette, Ill.). […] Percent crossing in each quadrant (target, left and right adjacent, and opposite) was calculated for probe trials. Data were analyzed by 2-way ANOVA followed by post-hoc comparisons and shown statistics refers to differences compared to vehicle treated rTg4510 mice.

sarkosyl-insoluble Tau = target: T1, sarkosyl-insoluble Tau (Homo sapiens, UniProt P10636, P618L); experiment: Sarkosyl-insoluble Tau quantification in cortex, study of Example 2; settings: rTg4510 mice cortex, once daily by gavage, 7 and 20 mg/kg; statistical significance at 20 mg/kg; FIG. 5
T1 construct: expressing the full-length human Tau carrying the P301L mutation (Tau4R0N-P301L); from tissue; host or cells: brain (cortex) of double transgenic rTg4510 mice
T1 sequence (P10636 1-383 isoform P10636-6 P243L): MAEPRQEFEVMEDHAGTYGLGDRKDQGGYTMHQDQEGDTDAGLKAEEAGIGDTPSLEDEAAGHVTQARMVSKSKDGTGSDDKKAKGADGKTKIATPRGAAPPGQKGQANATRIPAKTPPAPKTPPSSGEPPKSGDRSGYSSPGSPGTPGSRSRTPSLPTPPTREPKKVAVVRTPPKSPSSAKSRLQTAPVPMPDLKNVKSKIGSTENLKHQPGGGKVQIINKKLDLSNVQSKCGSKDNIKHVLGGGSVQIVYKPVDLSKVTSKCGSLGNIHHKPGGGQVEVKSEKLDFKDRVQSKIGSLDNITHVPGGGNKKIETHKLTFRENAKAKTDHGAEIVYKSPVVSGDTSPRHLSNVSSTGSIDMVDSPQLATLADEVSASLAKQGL
Protocol: as §1
After behavioral testing, mice were deeply anesthetized by standard injectable anesthesia and transcardially perfused with cold PBS. Brains were then removed and hemi-sagitally hemisected. […] The membranes were finally scanned using LiCor scanner (Odyssey Infrared Imager) and quantified using the LiCor software Image Studio Lite Version 5.2. […]

Question: Which results are given for CN(C)[C@@H]1CCc2c(c3ccc(Nc4ccc5sc(N6CCOCC6)nc5c4)nc3n2C)C1 [Example 2]?
Answer: cortex size (rTg4510 mice [1]): dose-dependent increase; percentage of platform crossings in the target compared to the opposite quadrant (MWM probe trial) (rTg4510 mice [2]): dose-dependent increase; sarkosyl insoluble Tau (sarkosyl-insoluble Tau): dose-dependent decrease
